# According to patent US11634436B2, “Pyridine lactam compounds and methods of use thereof” (Genentech, Inc., priority 2018, dated 2023):
# Target: T1, human RIP1 kinase domain (2-375) (Homo sapiens, UniProt Q13546)
# T1 construct: Purified human RIP1 kinase domain (2-375) (50 nM) derived from a baculovirus-infected insect cell expression system; made in house; host or cells: baculovirus-infected insect cells
# T1 sequence (Q13546 2-375): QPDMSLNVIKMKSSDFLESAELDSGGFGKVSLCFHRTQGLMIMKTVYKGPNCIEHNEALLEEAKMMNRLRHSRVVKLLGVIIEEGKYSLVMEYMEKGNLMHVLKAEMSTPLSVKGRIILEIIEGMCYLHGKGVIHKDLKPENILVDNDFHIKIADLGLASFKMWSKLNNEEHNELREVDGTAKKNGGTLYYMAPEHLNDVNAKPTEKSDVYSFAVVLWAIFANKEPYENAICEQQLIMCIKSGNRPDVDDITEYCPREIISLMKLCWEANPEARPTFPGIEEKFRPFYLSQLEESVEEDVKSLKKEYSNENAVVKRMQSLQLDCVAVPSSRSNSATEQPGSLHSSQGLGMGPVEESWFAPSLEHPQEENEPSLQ
# Assay: RIP1 kinase inhibition biochemical assay (Transcreener ADP, fluorescence polarization)
# Details: tight-binding apparent inhibition constant (Ki app, Morrison equation); 50 nM enzyme, 50 uM ATP, 2 hours incubation
# Experimental: RIP1 Kinase Inhibition Assays (Biochemical Assay)
# The compounds of the present invention were tested for their capacity to inhibit RIP1K activity as described below.
# Enzyme assay: The ability of the receptor interacting protein kinase (RIPK1) to catalyze the hydrolysis of adenosine-5′-triphosphate (ATP) is monitored using the Transcreener ADP (adenosine-5′-diphosphate) assay (BellBrook Labs). Purified human RIP1 kinase domain (2-375) (50 nM) derived from a baculovirus-infected insect cell expression system is incubated with test compounds for 2 hours in 50 mM Hepes buffer (pH 7.5) containing 30 mM MgCl2, 1 mM dithiothreitol, 50 uM ATP, 0.002% Brij-35, and 0.5% dimethyl sulfoxide (DMSO). Reactions are quenched by the addition of 1× Bell Brooks Stop buffer B (20 mM Hepes (ph7.5), 40 mM ethylenediaminetetraacetic acid and 0.02% Brij-35) containing an additional 12 mM EDTA and 55 ug/mL ADP2 antibody and 4 nM ADP-AlexaFluor® 633 tracer. The tracer bound to the antibody is displaced by the ADP generated during the RIP1K reaction, which causes a decrease in fluorescence polarization that is measured by laser excitation at 633 nm with a FP microplate reader M1000. Fractional activity was plotted against test article concentration. Using Genedata Screener software (Genedata; Base1, Switzerland), the data were fit to the tight-binding apparent inhibition constant (Ki^app) Morrison equation [Williams, J. W. and Morrison, J. F. (1979) The kinetics of reversible tight-binding inhibition. Methods Enzymol 63: 437-67]. The following equation was used to calculate fractional activity and Ki^app:
# [formula] where [E]T and [I]T are the total concentrations of active enzyme and test article, respectively.
# Exemplary compounds of the present invention are provided in Table 1 along with their physiochemical characterization and in vitro RIP1 kinase inhibitory activity data. “Method” in the first column of each table refers to the synthetic method(s) used to prepare each compound as shown in the Examples above. In certain examples, chiral column retention times (min) are provided for certain stereoisomers. Unless otherwise specified, the stereochemistry shown in each structure represents relative configuration of a single stereoisomer, and absolute configuration (i.e., “R” and/or “S”) is arbitrarily assigned. In some embodiments, where the Method is described to include the separation of stereoisomers, a single stereoisomer of a compound of Table 1 is provided.
row,Structure (SMILES),Ki
1,"CN1C(=O)[C@@H](NC(=O)c2cc3n(n2)[C@H](c2ccccc2)C[C@@H]3F)COc2cccnc21 (single isomer, unassigned) [Example 1]",5.2 nM
2,"CN1C(=O)[C@@H](NC(=O)c2cc3n(n2)CCO[C@H]3c2ccccc2F)COc2cccnc21 (single isomer, unassigned) [Example 3]",24 nM
3,"CN1C(=O)[C@@H](NC(=O)c2cc3n(n2)CCO[C@@H]3c2ccccc2F)COc2cccnc21 (single isomer, unassigned) [Example 4]",950 nM
4,"CN1C(=O)[C@@H](NC(=O)c2cc3n(n2)CCO[C@H]3c2ccccc2)COc2cccnc21 (single isomer, unassigned) [Example 5]",19 nM
5,"CN1C(=O)[C@@H](NC(=O)c2cc3n(n2)[C@@H](c2ccccc2)C[C@H]3F)COc2ccccc21 (single isomer, unassigned) [Example 10]",5400 nM
6,"CN1C(=O)[C@@H](NC(=O)c2cc3n(n2)[C@H](c2ccccc2)C[C@@H]3F)COc2ccccc21 (single isomer, unassigned) [Example 11]",4.4 nM
7,"CC(C)n1ncc2cnc(C(=O)N[C@H]3COc4cccnc4N(C)C3=O)nc21 [Example 2, 1-isopropyl-N-[(3S)-5-methyl-4-oxo-2,3-dihydropyrido[3,2-b][1,4]oxazepin-3-yl]pyrazolo[3,4-d]pyrimidine-6-carboxamide]",14 nM
8,"C[C@H]1Oc2cccnc2N(C)C(=O)[C@H]1NC(=O)c1cc2n(n1)CCO[C@H]2c1ccccc1 [Example 6, (4S)-4-phenyl-N-[(2R,3S)-2,5-dimethyl-4-oxo-2,3-dihydropyrido[3,2-b][1,4]oxazepin-3-yl]-6,7-dihydro-4H-pyrazolo[5,1-c][1,4]oxazine-2-carboxamide]",7 nM
9,"[2H]C([2H])([2H])N1C(=O)[C@@H](NC(=O)c2cc3n(n2)CCO[C@H]3c2ccccc2)COc2cccnc21 [Example 7, (4S)-4-phenyl-N-[(3S)-4-oxo-5-(trideuteriomethyl)-2,3-dihydropyrido[3,2-b][1,4]oxazepin-3-yl]-6,7-dihydro-4H-pyrazolo[5,1-c][1,4]oxazine-2-carboxamide]",28 nM
10,"CCC(F)(F)n1ncc2cnc(C(=O)N[C@H]3COc4cccnc4N(C)C3=O)nc21 [Example 8, 1-(1,1-difluoropropyl)-N-[(3S)-5-methyl-4-oxo-2,3-dihydropyrido[3,2-b][1,4]oxazepin-3-yl]pyrazolo [3,4-d]pyrimidine-6-carboxamide]",18 nM
11,"CN1C(=O)[C@@H](NC(=O)c2ncc3cnn(C4CCCC4)c3n2)COc2cccnc21 [Example 9, 1-cyclopentyl-N-[(3S)-5-methyl-4-oxo-2,3-dihydropyrido[3,2-b][1,4]oxazepin-3-yl]pyrazolo [3,4-d]pyrimidine-6-carboxamide]",11 nM
12,"CCC(F)(F)n1ncc2cnc(C(=O)N[C@H]3COc4cccnc4N(C)C3=O)cc21 [Example 12, 1-(1,1-difluoropropyl)-N-[(3S)-5-methyl-4-oxo-2,3-dihydropyrido[3,2-b][1,4]oxazepin-3-yl]pyrazolo [4,3-c]pyridine-6-carboxamide]",5 nM
